# Target: T1, human plasma protein factor Xa (Homo sapiens, UniProt P00742)
# T1 construct: measure proteolytic activity of the enzyme (factor Xa); purchased Haematologic Technologies (Essex Junction, Vt.); host or cells: human plasma
# Test: Factor Xa IC50 determination: cleavage of paranitroanilide substrate S-2765 in 96-well plates
# Assay type: biochemical
# Conditions: fXa 1 nM, S-2765 100 μM, Tris buffered saline pH 7.4, room temperature
# From the text: This example illustrates methods for evaluating the compounds of the invention, along with results obtained for such assays. The in vitro and in vivo Factor Xa isoform activities of the inventive compounds can be determined by various procedures known in the art, such as a test for their ability to inhibit the activity of the Factor Xa isoform. […] The IC50 value is the concentration (in nM) of the compound required to provide 50% inhibition of Factor Xa isoform.
# An in vitro assay for detecting and measuring inhibition activity against Factor Xa is as follows:
# The substrate S-2765 (Z-D-Arg-Gly-Arg-pNA.HCl) was obtained from Diapharma (West Chester, Ohio).
# The human plasma protein factor Xa was purchased from Haematologic Technologies (Essex Junction, Vt.).
# All assays, which are performed in 96-well microtiter plates, measure proteolytic activity of the enzyme (factor Xa) by following cleavage of paranitroanilide substrate. The assay buffer used for proteolytic assays was Tris buffered saline (20 mM Tris, 150 mM NaCl, 5 mM CaCl2, 0.1% Bovine serum albumin (BSA), 5% Dimethly Sulfoxide (DMSO) pH 7.4). In a 96-well microtiter plate, inhibitor was serially diluted to give a range of concentrations from 0.01 nM to 10 μM (final). Duplicate sets of wells were assayed and control wells without inhibitor were included. Enzyme was added to each well, (fXa concentration=1 nM), the plate was shaken for 5 seconds and then incubated for 5 minutes at room temperature. S2765 was added (100 μM final) and the plate was shaken for 5 seconds (final liquid volume in each well was 200 μl). The degree of substrate hydrolysis was measured at 405 nm on a Thermomax plate reader (Molecular Devices, Sunnyvale, Calif.) for 2 minutes. The initial velocities (mOD/min), for each range of inhibitor concentrations, were fitted to a four parameter equation using Softmax data analysis software. The parameter C, derived from the resulting curve-fit, corresponded to the concentration for half maximal inhibition (IC50).
# T1 sequence (P00742 235-488 limits assumed): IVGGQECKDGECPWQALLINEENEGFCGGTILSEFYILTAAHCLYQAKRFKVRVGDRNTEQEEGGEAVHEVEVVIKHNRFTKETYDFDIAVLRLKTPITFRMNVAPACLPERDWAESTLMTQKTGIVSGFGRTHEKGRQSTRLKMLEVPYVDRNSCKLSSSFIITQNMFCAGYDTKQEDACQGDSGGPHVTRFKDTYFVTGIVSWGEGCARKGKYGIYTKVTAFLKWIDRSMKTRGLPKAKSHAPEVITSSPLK
# T1 sequence (P00742 41-179 partner limits assumed): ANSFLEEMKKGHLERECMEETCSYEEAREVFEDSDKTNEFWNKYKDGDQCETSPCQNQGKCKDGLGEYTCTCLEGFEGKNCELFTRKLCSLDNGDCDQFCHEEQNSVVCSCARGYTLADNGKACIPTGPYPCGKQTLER
row,SMILES,IC50 [nM]
1,"CN1CCN(Cc2ccccc2-c2ccc(C3=NOC(CNC(=O)c4ccc(Cl)s4)C3)cc2)CC1 (centres unmarked) [Example 199, 5-Chloro-thiophene-2-carboxylic acid {3-[2′-(4-methyl-piperazin-1-ylmethyl)-biphenyl-4-yl]-4,5-dihydro-isoxazol-5-ylmethyl}-amide]",≤ 100
2,"O=C(NCc1cc(-c2ccc(-c3ccc(CN4CCCC4)cc3)cc2)no1)c1ccc(Cl)s1 [Example 214, 5-Chloro-thiophene-2-carboxylic acid [3-(4′-pyrrolidin-1-ylmethyl-biphenyl-4-yl)-isoxazol-5-ylmethyl]-amide]",≥ 500
3,"CSc1cc(C(=N)N2CCCCC2)ccc1C1=NOC(CNC(=O)c2ccc(Cl)s2)C1 (centres unmarked) [Example 139, 5-Chloro-thiophene-2-carboxylic acid {3-[4-(imino-piperidin-1-yl-methyl)-2-methylsulfanyl-phenyl]-4,5-dihydro-isoxazol-5-ylmethyl}-amide]",≤ 100
4,"CN(Cc1cc(-c2ccc(C(=N)N3CCC(C(N)=O)CC3)cc2)no1)C(=O)c1ccc(Cl)s1 [Example 45, 1-{[4-(5-{[(5-Chloro-thiophene-2-carbonyl)-methyl-amino]-methyl}-isoxazol-3-yl)-phenyl]-imino-methyl}-piperidine-4-carboxylic acid amide]",≥ 500
5,"O=C(NCC1CC(c2ccc(N3CCOCC3=O)cc2)=NO1)c1ccc(Cl)s1 (centres unmarked) [Example 243, 5-Chloro-thiophene-2-carboxylic acid {3-[4-(3-oxo-morpholin-4-yl)-phenyl]-4,5-dihydro-isoxazol-5-ylmethyl}-amide]",≤ 100
6,"N=C(c1ccc(-c2csc(CNC(=O)c3ccc(Cl)s3)n2)cc1)N1CCCC1 [Example 362, 5-Chloro-N-((4-(4-(imino(pyrrolidin-1-yl)methyl)phenyl)thiazol-2-yl)methyl)thiophene-2-carboxamide]",≥ 500
7,"COCCN(C)C(=N)c1ccc(C2=NOC(C)(CNC(=O)c3ccc(Cl)s3)C2)cc1 (centres unmarked) [Example 66, 5-Chloro-thiophene-2-carboxylic acid (3-{-4-[N-(2-methoxy-ethyl)-N-methyl-carbamimidoyl]-phenyl}-5-methyl-4,5-dihydro-isoxazol-5-ylmethyl)-amide]",100 to 500
8,"CCOc1cc(Nc2ccc(C3=NOC(CNC(=O)c4ccc(Cl)s4)C3)cc2)ccn1 (centres unmarked) [Example 401, 5-Chloro-N-((3-(4-(2-ethoxypyridin-4-ylamino)phenyl)-4,5-dihydroisoxazol-5-yl)methyl)thiophene-2-carboxamide]",≤ 100
9,"COc1cccn(-c2ccc(C3=NOC(CNC(=O)c4ccc(Cl)s4)C3)cc2)c1=O (centres unmarked) [Example 282, 5-Chloro-N-((3-(4-(3-methoxy-2-oxopyridin-1(2H)-yl)phenyl)-4,5-dihydroisoxazol-5-yl)methyl)thiophene-2-carboxamide]",≤ 100
10,"CN1CCN(c2ccc(C3=NOC(CNC(=O)c4ccc(Cl)s4)C3)cc2)CC1 (centres unmarked) [Example 235, 5-Chloro-thiophene-2-carboxylic acid {3-[4-(4-methyl-piperazin-1-yl)-phenyl]-4,5-dihydro-isoxazol-5-ylmethyl}-amide]",100 to 500
11,"CCOC(=O)C1CCN(C(=N)c2ccc(-c3nc(CNC(=O)c4ccc(Cl)s4)cs3)cc2)CC1 [Example 354, Ethyl 1-((4-(4-((2-chlorothiophene-5-carboxamido)methyl)thiazol-2-yl)phenyl)(imino)methyl)piperidine-4-carboxylate]",100 to 500
12,"CN(C)Cc1ccc(Cl)cc1-c1ccc(C2=NOC(CNC(=O)c3ccc(Cl)s3)C2)cc1 (centres unmarked) [Example 204, 5-Chloro-thiophene-2-carboxylic acid [3-(5′-chloro-2′-dimethylaminomethyl-biphenyl-4-yl)-4,5-dihydro-isoxazol-5-ylmethyl]-amide]",≤ 100
13,"N=C(c1ccc(-c2cc(CNC(=O)c3ccc(Cl)s3)on2)c(Oc2ccccc2)c1)N1CCCC1 [Example 132, 5-Chloro-thiophene-2-carboxylic acid {3-[4-(imino-pyrrolidin-1-yl-methyl)-2-phenoxy-phenyl]-isoxazol-5-ylmethyl}-amide]",≤ 100
14,"O=C(NCc1cc(-c2cccc(-c3ccc(CN4CCCC4)cc3)c2)no1)c1ccc(Cl)s1 [Example 273, 5-Chloro-thiophene-2-carboxylic acid [3-(4′-pyrrolidin-1-ylmethyl-biphenyl-3-yl)-isoxazol-5-ylmethyl]-amide]",≥ 500
15,"N=C(c1ccc(C2=NOC(CNC(=O)c3ccc(Cl)s3)C2)c(N2CCCC2)c1)N1CCCCC1 (centres unmarked) [Example 81, 5-Chloro-thiophene-2-carboxylic acid {3-[4-(imino-piperidin-1-yl-methyl)-2-pyrrolidin-1-yl-phenyl]-4,5-dihydro-isoxazol-5-ylmethyl}-amide]",≥ 500
16,"CN(C)C(=N)c1ccc(-c2cc(CNC(=O)c3ccc(Cl)s3)on2)c(N2CCOCC2)c1 [Example 98, 5-Chloro-thiophene-2-carboxylic acid {3-[4-(N,N-dimethyl-carbamimidoyl)-2-morpholin-4-yl-phenyl]-isoxazol-5-ylmethyl}-amide]",≤ 100
17,"N#Cc1ccc(C2=NOC(CNC(=O)c3ccc(Cl)s3)C2)cc1 (centres unmarked) [Example 7, 5-Chloro-thiophene-2-carboxylic acid [3-(4-cyano-phenyl)-4,5-dihydro-isoxazol-5-ylmethyl]-amide]",≤ 100
18,"C#CCN(C)C(=N)c1ccc(-c2cc(CN(C)C(=O)c3ccc(Cl)s3)on2)cc1 [Example 47, 5-Chloro-thiophene-2-carboxylic acid methyl-{3-[4-(N-methyl-N-prop-2-ynyl-carbamimidoyl)-phenyl]-isoxazol-5-ylmethyl}-amide]",≥ 500
19,"N=C(c1ccc(C2=NOC(CNC(=O)c3ccc(Cl)s3)C2)c(OC2CCCCC2)c1)N1CCCC1 (centres unmarked) [Example 117, 5-Chloro-thiophene-2-carboxylic acid {3-[2-cyclohexyloxy-4-(imino-pyrrolidin-1-yl-methyl)-phenyl]-4,5-dihydro-isoxazol-5-ylmethyl}-amide]",≤ 100
20,COCCN(C)c1cc(C2=NCCN2C)ccc1C1=NOC(CNC(=O)c2ccc(Cl)s2)C1 (centres unmarked) [Example 87],100 to 500
21,"O=C(NCc1cn(-c2ccc(-n3ccccc3=O)cc2O)nn1)c1ccc(Cl)s1 [Example 307, 5-Chloro-N-((1-(2-hydroxy-4-(2-oxopyridin-1(2H)-yl)phenyl)-1H-1,2,3-triazol-4-yl)methyl)thiophene-2-carboxamide]",≤ 100
22,"CC1CCCN1C(=O)c1ccc(C2=NOC(CNC(=O)c3ccc(Cl)s3)C2)cc1 (centres unmarked) [Example 165, 5-Chloro-thiophene-2-carboxylic acid {3-[4-(2-methyl-pyrrolidine-1-carbonyl)-phenyl]-4,5-dihydro-isoxazol-5-ylmethyl}-amide]",100 to 500
23,"COc1ccc(Oc2cc(C(=N)N(C)C)ccc2-c2cc(CNC(=O)c3ccc(Cl)s3)on2)cc1 [Example 133, 5-Chloro-thiophene-2-carboxylic acid {3-[4-(N,N-dimethyl-carbamimidoyl)-2-(4-methoxy-phenoxy)-phenyl]-isoxazol-5-ylmethyl}-amide]",≤ 100
24,"O=C(NCc1cc(-c2ccc(Nc3ccccc3)cc2)no1)c1ccc(Cl)s1 [Example 250, 5-Chloro-thiophene-2-carboxylic acid [3-(4-phenylamino-phenyl)-isoxazol-5-ylmethyl]-amide]",≥ 500
25,"CN(C)C(=N)c1ccc(-n2cnc(CNC(=O)c3ccc(Cl)s3)c2)cc1 [Example 364, N-((1-(4-(N,N-Dimethylcarbamimidoyl)phenyl)-1H-imidazol-4-yl)methyl)-5-chlorothiophene-2-carboxamide]",≤ 100
26,"O=C(NCc1cn(-c2ccc(N3CCOCC3=O)nc2)nn1)c1ccc(Cl)s1 [Example 387, 5-Chloro-N-((1-(6-(3-oxomorpholino)pyridin-3-yl)-1H-1,2,3-triazol-4-yl)methyl)thiophene-2-carboxamide]",≤ 100
27,"CN1CCN(c2ccc(C3=NOC(CNC(=O)c4ccc(Cl)s4)C3)cc2)C1=O (centres unmarked) [Example 245, 5-Chloro-thiophene-2-carboxylic acid {3-[4-(3-methyl-2-oxo-imidazolidin-1-yl)-phenyl]-4,5-dihydro-isoxazol-5-ylmethyl}-amide]",≤ 100
28,"O=C(NCC1CC(c2ccc(N3CCSCC3=O)cc2)=NO1)c1ccc(Cl)s1 (centres unmarked) [Example 244, 5-Chloro-thiophene-2-carboxylic acid {3-[4-(3-oxo-thiomorpholin-4-yl)-phenyl]-4,5-dihydro-isoxazol-5-ylmethyl}-amide]",100 to 500
29,"CN(C)C(=N)c1ccc(-c2csc(CNC(=O)c3ccc(Cl)s3)n2)cc1 [Example 360, N-((4-(4-(N,N-Dimethylcarbamimidoyl)phenyl)thiazol-2-yl)methyl)-5-chlorothiophene-2-carboxamide]",≥ 500

# — patent US8377974B2 (Millennium Pharmaceuticals, Inc., priority 2004, dated 2013)
